Measured values from PubChem BioAssay AID732 (Emory University Molecular Libraries Screening Center, 2007).
Several values for one entry are separate records, joined by “and”; a condition that tells them apart may be missing. Equal entries are not always repeated. Activity calls are given as the source filed them. How the calls were made is not given here.

Each compound was assayed on in vivo angiogenesis, blood vessel count (assay: reduction of blood vessel formation in vivo – HTS, in vivo study (AID 732;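 further: zebrafish embryos dosed at one day post fertilization; 0% = reference inhibitor and 100% = plate mean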)). Settings: stronger effect = lower value;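 tested at 30 µM in the well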.
In the case of `CNc1ncnc2c1ncn2[C@@H]1O[C@H](CO)[C@H](O)C1O` (stereo partly drawn), the vessel count % control is reported as 95.4% (inactive).
`S=C(NC1CCCCC1)N1CCC(c2cnc[nH]2)CC1` was tested, and the vessel count % control was 129% (inactive).
With `CN(C)S(=O)(=O)c1ccc2c(c1)/C(=C/c1cc3c([nH]1)CCCC3)C(=O)N2` the vessel count % control was 120% (inactive).
For `CN(C)CC/C=C1\c2ccccc2COc2ccccc21`, the vessel count % control was 97.3% (inactive).
`CC12C(=O)OC(=O)C1(C)C1CCC2O1` (stereo not drawn) was tested, and the vessel count % control was 0% (inactive).
`NCC(O)c1ccc(O)cc1` (stereo not drawn) was tested, and the vessel count % control was 103% (inactive).
`COc1cc([C@@H]2c3cc4c(cc3[C@H](O)C3COC(=O)[C@@H]32)OCO4)cc(OC)c1OC` (stereo partly drawn) was tested, and the vessel count % control was 88.6% (inactive).
For `C[C@]12CC[C@@H]3c4ccc(O)cc4CC[C@H]3[C@@H]1CCC2=O`, the vessel count % control was 111% (inactive).
`CC(C)C[C@H](NC(=O)[C@@H](O)[C@H](N)Cc1ccccc1)C(=O)O` was tested, and the vessel count % control was 123% (inactive).
For `NCC1OC(O[C@@H]2[C@H](O)C(OC3C(O)C(N)CC(N)C3OC3OC(CO)C(O)C(O)C3N)O[C@@H]2CO)C(N)C(O)C1O` (stereo partly drawn), the vessel count % control was 116% (inactive).
With `Cn1cnc2c(NC3CCCC3)ncnc21` the vessel count % control was 95.9% (inactive).
For `CCCCCCC/C=C\CCCCCCCCC(=O)O`, the vessel count % control was 106% (inactive).
In the case of `C=CCN1CCc2cc(O)c(O)cc2C(c2ccccc2)C1` (stereo not drawn), the vessel count % control is reported as 114% (inactive).
With `COc1cc(CC(C)N)c(OC)cc1I` (stereo not drawn) the vessel count % control was 79.5% (inactive).
For `CC1(NCC(O)COc2cccc3[nH]ccc23)CCC(C(C)(C)NC(=O)CBr)CC1` (stereo not drawn), the vessel count % control was 124% (inactive).
With `OC[C@H]1O[C@@H](n2cnc3c(N[C@H]4CC5CCC4C5)ncnc32)[C@H](O)[C@@H]1O` (stereo partly drawn) the vessel count % control was 77.1% (inactive).
For `Nc1nc2ccc(OC(F)(F)F)cc2s1`, the vessel count % control was 77% (inactive).
In the case of `O=C1CCc2cc(OCCCCc3nnnn3C3CCCCC3)ccc2N1`, the vessel count % control is reported as 124% (inactive).
With `Cc1cccc2c(-c3[nH]c4ccccc4c3N=O)c(O)[nH]c12` the vessel count % control was 25.1%.
`CN1C2CCC1CC(OC(c1ccccc1)c1ccccc1)C2` (stereo not drawn) was tested, and the vessel count % control was 91.6% (inactive).
`CCN1/C(=C/C(C)=O)Sc2ccc(OC)cc21` was tested, and the vessel count % control was 98% (inactive).
In the case of `C[C@]12CCC(=O)C=C1CC[C@@H]1[C@@H]2C(=O)C[C@@]2(C)[C@H]1CC[C@]2(O)C(=O)CO`, the vessel count % control is reported as 126% (inactive).
`Clc1ccc(C(c2ccc(Cl)cc2)n2cc[n+](CC(OCc3ccc(Cl)cc3Cl)c3ccc(Cl)cc3Cl)c2)cc1` (stereo not drawn) was tested, and the vessel count % control was 0% (inactive).
For `O=C(Nc1ccccc1)c1cc([N+](=O)[O-])ccc1Cl`, the vessel count % control was 90.3% (inactive).
In the case of `N[C@H](CO)C(=O)O`, the vessel count % control is reported as 105% (inactive).
`O=C(O)C1=CCNCC1` was tested, and the vessel count % control was 131% (inactive).
For `NC1CONC1=O` (stereo not drawn), the vessel count % control was 117% (inactive).
With `COc1cc(NS(C)(=O)=O)ccc1Nc1c2ccccc2nc2ccccc12` the vessel count % control was 106% (inactive).
`C[C@]12CCC3C(CC[C@H]4C[C@H](O)CC[C@]34C)C1CC[C@@H]2C(=O)CO` (stereo partly drawn) was tested, and the vessel count % control was 105% (inactive).
`Nc1c2c(nc3ccccc13)CCCC2` was tested, and the vessel count % control was 91.9% (inactive).
`Nc1nc(Cl)nc2c1ncn2[C@@H]1O[C@H](CO)[C@H](O)C1O` (stereo partly drawn) was tested, and the vessel count % control was 107% (inactive).
In the case of `COc1cc2nc(N3CCN(C(=O)C4COc5ccccc5O4)CC3)nc(N)c2cc1OC` (stereo not drawn), the vessel count % control is reported as 103% (inactive).
With `Cc1ccccc1C(OCCN(C)C)c1ccccc1` (stereo not drawn) the vessel count % control was 108% (inactive).
In the case of `C[N+]1(C)CCOC(O)(c2ccc(-c3ccc(C4(O)C[N+](C)(C)CCO4)cc3)cc2)C1` (stereo not drawn), the vessel count % control is reported as 103% (inactive).
In the case of `N[C@@H](Cc1ccc(O)c(O)c1)C(=O)O`, the vessel count % control is reported as 118% (inactive).
For `O=C(O)c1ccccc1Nc1ccccc1`, the vessel count % control was 109% (inactive).
`CC(=O)c1ccc(S(=O)(=O)NC(=O)NC2CCCCC2)cc1` was tested, and the vessel count % control was 84.8% (inactive).
For `CN(C)CCCC1(c2ccc(F)cc2)OCc2cc(C#N)ccc21` (stereo not drawn), the vessel count % control was 99.8% (inactive).
In the case of `COc1ccccc1N1CCN(CC(O)COc2cccc3ccccc23)CC1` (stereo not drawn), the vessel count % control is reported as 91.2% (inactive).
With `NCC(CP(=O)(O)O)c1ccc(Cl)cc1` (stereo not drawn) the vessel count % control was 116% (inactive).
In the case of `C[C@]12CCC(=O)C=C1CC[C@@H]1[C@@H]2CC[C@@]2(C)[C@H]1CC[C@]2(O)C(=O)CO`, the vessel count % control is reported as 106% (inactive).
In the case of `CC[N+](C)(C)c1cccc(O)c1`, the vessel count % control is reported as 114% (inactive).
With `N=Nc1c(-c2c(O)[nH]c3c(Cl)cc(Cl)cc23)[nH]c2ccc(Br)cc12` the vessel count % control was 53.5% (inactive).
In the case of `OCCN1CCN(CC/C=C2/c3ccccc3Sc3ccc(C(F)(F)F)cc32)CC1`, the vessel count % control is reported as 110% (inactive).
`CC1C(=O)N(C)C(=O)c2nc[nH]c21` (stereo not drawn) was tested, and the vessel count % control was 98.5% (inactive).
With `CN1C[C@H](C(=O)N[C@]2(C)O[C@@]3(O)[C@@H]4CCCN4C(=O)[C@H](Cc4ccccc4)N3C2=O)C[C@@H]2c3cccc4[nH]cc(c34)C[C@H]21` the vessel count % control was 98.7% (inactive).
With `CCN1CCCC1CNC(=O)c1cc(S(N)(=O)=O)ccc1OC` (stereo not drawn) the vessel count % control was 112% (inactive).
For `Cc1oncc1C(=O)Nc1ccc(C(F)(F)F)cc1`, the vessel count % control was 81.6% (inactive).
With `CNCC(O)c1ccc(O)cc1` (stereo not drawn) the vessel count % control was 131% (inactive).
In the case of `CC(C)COCC(CN(Cc1ccccc1)c1ccccc1)N1CCCC1` (stereo not drawn), the vessel count % control is reported as 104% (inactive).
For `COc1ccc2[nH]c3c(c2c1)CCNC3`, the vessel count % control was 137% (inactive).
In the case of `CCCN(CCC)CCc1cccc2c1CC(=O)N2`, the vessel count % control is reported as 96.5% (inactive).
`N=c1c[n+](N2CCOCC2)[n-]o1` was tested, and the vessel count % control was 110% (inactive).
In the case of `NC(=NCc1ccccc1)NC(=O)c1nc(Cl)c(N)nc1N`, the vessel count % control is reported as 107% (inactive).
In the case of `Cc1ccc(O)c(N=Nc2ccccc2)n1`, the vessel count % control is reported as 112% (inactive).
`NC1C=CC=C(C(=O)O)C1` (stereo not drawn) was tested, and the vessel count % control was 114% (inactive).
In the case of `CCCN(CCC)[C@@H]1CCc2c(F)ccc(O)c2C1`, the vessel count % control is reported as 78.7% (inactive).
`C[C@]12CC[C@@H](O)CC1CC[C@@H]1[C@@H]2CC[C@]2(C)C(=O)CC[C@@H]12` (stereo partly drawn) was tested, and the vessel count % control was 104% (inactive).
`Cc1ccc2[nH]c(O)c(C3=Nc4ccc(Br)cc4C3=O)c2c1` was tested, and the vessel count % control was 108% (inactive).
For `NC(=O)c1cc[n+](CC2=C(C(=O)O)N3C(=O)[C@@H](NC(=O)[C@@H](c4ccccc4)S(=O)(=O)[O-])[C@H]3SC2)cc1`, the vessel count % control was 99.9% (inactive).
With `CCS(=O)(=O)Nc1cccc(C(=C2CCCCC2)c2cnc[nH]2)c1` the vessel count % control was 98.4% (inactive).
In the case of `NCC(O)C1CCCCCCC1` (stereo not drawn), the vessel count % control is reported as 95.9% (inactive).
For `Oc1[nH]c2ccccc2c1C1=Nc2ccc(Br)cc2/C1=N\OCCN1CCNCC1`, the vessel count % control was 86.4% (inactive) and 40.6% (inactive).
In the case of `CC1=C(/C=C/C(C)=C/C=C/C(C)=C/C(=O)Nc2ccc(O)cc2)C(C)(C)CCC1`, the vessel count % control is reported as 96.8% (inactive).
With `CCOC(=O)C(C)(C)Oc1ccc(Cl)cc1` the vessel count % control was 55.4% (inactive).
`NCCS(=O)O` was tested, and the vessel count % control was 107% (inactive).
In the case of `NCCc1c[nH]c2ccc(C(N)=O)cc12`, the vessel count % control is reported as 112% (inactive).
`O=C(CCCN1CCC2(CC1)C(=O)NCN2c1ccccc1)c1ccc(F)cc1` was tested, and the vessel count % control was 77.9% (inactive).
In the case of `CN(C)CCOC(c1ccccc1)c1ccccc1`, the vessel count % control is reported as 86.5% (inactive).
`CC(=O)/C(C)=N/O` was tested, and the vessel count % control was 104% (inactive).
`O=C(O)C1C2CCC(O2)C1C(=O)O` (stereo not drawn) was tested, and the vessel count % control was 98.3% (inactive).
For `CC1=C(C)C(=O)C(CCCCC#CCCCC#CCO)=C(C)C1=O`, the vessel count % control was 88.8% (inactive).
For `COC(=O)c1c(-c2cc(OC)c(OC)c(OC)c2)c2ccc(OCc3ccccn3)cc2c(=O)n1-c1ccc(N)cc1`, the vessel count % control was 109% (inactive).
In the case of `CCc1cccc2c3c([nH]c12)C(CC)(CC(=O)O)OCC3` (stereo not drawn), the vessel count % control is reported as 83.6% (inactive).
`CCCNC[C@H](O)COc1ccccc1C(=O)CCc1ccccc1` was tested, and the vessel count % control was 93.1% (inactive).
In the case of `CC1Cc2cc3c(cc2C(c2ccc(N)cc2)=NN1)OCO3` (stereo not drawn), the vessel count % control is reported as 105% (inactive).
In the case of `CCN1CCc2nc(N)oc2CC1`, the vessel count % control is reported as 96.4% (inactive).
For `Clc1ccccc1C(c1ccccc1)(c1ccccc1)n1ccnc1`, the vessel count % control was 114% (inactive).
For `CC(N)(Cc1ccc(O)cc1)C(=O)O` (stereo not drawn), the vessel count % control was 105% (inactive).
`CCCCc1oc2ccccc2c1C(=O)c1cc(I)c(OCCN(CC)CC)c(I)c1` was tested, and the vessel count % control was 120% (inactive).
For `CC1(C)CCC(NC(=O)[C@@H](N)CCC(=O)O)CC1`, the vessel count % control was 122% (inactive).
For `CCc1c(C(=O)OC)ncc2[nH]c3cc(OC)c(OC)cc3c12`, the vessel count % control was 129% (inactive).
With `CCCCCCCCCCCCCCCCCC(=O)NCC(COP(=O)([O-])OCC[N+](C)(C)C)OCC` (stereo not drawn) the vessel count % control was 101% (inactive).
`NC(CO)C(=O)NNCc1ccc(O)c(O)c1O` (stereo not drawn) was tested, and the vessel count % control was 120% (inactive).
In the case of `CCCCCCCCCC(=O)NC(CN1CCOCC1)[C@H](O)c1ccccc1` (stereo partly drawn), the vessel count % control is reported as 74% (inactive).
For `Clc1ccc(N2CC3CCC(C2)N3)nn1`, the vessel count % control was 106% (inactive).
With `COc1ccc(CCN(C)CCCC(C#N)(c2cc(OC)c(OC)c(OC)c2)C(C)C)cc1OC` (stereo not drawn) the vessel count % control was 102% (inactive).
In the case of `Nn1nnc2ccccc21`, the vessel count % control is reported as 109% (inactive).
`NC(Cc1ccc(Cl)cc1)C(=O)O` (stereo not drawn) was tested, and the vessel count % control was 103% (inactive).
In the case of `O=C(CCNNC(=O)c1ccncc1)NCc1ccccc1`, the vessel count % control is reported as 67.2% (inactive).
For `Oc1cc2c(cc1O)CN(C(=S)NCCc1ccc(Cl)cc1)CCC2`, the vessel count % control was 93.3% (inactive).
With `CC[C@H](C)C(=O)O[C@H]1CCC=C2C=C[C@H](C)[C@H](CC[C@@H]3C[C@@H](O)CC(=O)O3)[C@H]21` the vessel count % control was 88.5% (inactive).
In the case of `CCCn1c(=O)[nH]c(=O)c2[nH]cnc21`, the vessel count % control is reported as 97.5% (inactive).
`O=C(Nc1cc(C(=O)Nc2ccc(S(=O)(=O)O)cc2S(=O)(=O)O)cc(C(=O)Nc2ccc(S(=O)(=O)O)cc2S(=O)(=O)O)c1)Nc1cc(C(=O)Nc2ccc(S(=O)(=O)O)cc2S(=O)(=O)O)cc(C(=O)Nc2ccc(S(=O)(=O)O)cc2S(=O)(=O)O)c1` was tested, and the vessel count % control was 118% (inactive).
In the case of `O=C1C(SCCO)=C(SCCO)C(=O)c2ccccc21`, the vessel count % control is reported as 0% (inactive).
In the case of `C[Se]C[C@H](N)C(=O)O`, the vessel count % control is reported as 103% (inactive).
With `CCC1(c2ccccc2)C(=O)NCNC1=O` the vessel count % control was 91.4% (inactive).
In the case of `NC(N)=NC(N)=Nc1cccc(Cl)c1`, the vessel count % control is reported as 103% (inactive).
